Format in all cases: in vivo
For test [1], the system named is Fall armyworm, Spodoptera frugiperda (LAPHFR). Nature of the test: Fall armyworm feeding damage on creeping bentgrass fairway. The note with it: for % Reduction / % activity: alpha-cypermethrin 95, dinotefuran 600, combination 95 + 380 g ai/ha; for Fall Armyworm damage (%) (average feeding damage): five days after treatment, two applications, alpha-cypermethrin 95, dinotefuran 600, combination 95 + 380 g ai/hectare. An excerpt: (§1) Synergism can be described as an interaction where the combined effect of two or more compounds is greater than the sum of the individual effects of each of the compounds. The presence of a synergistic effect in terms of percent control, between two mixing partners (X and Y) can be calculated using the Colby equation (Colby, S. R., 1967, Calculating Synergistic and Antagonistic Responses in Herbicide Combinations, Weeds, 15, 20-22):
A trial was established on a mature ‘L-93’ creeping bentgrass fairway. An initial application was made with a repeat application 8 days later. Fall armyworms were artificially infested at the test site eight hours after the second application. Ten living caterpillars were added to each plot and were protected within a PVC ring. Plots were rated five days after treatement for percent damage by caterpillar feeding within the ring area.

In test [2] the test system is Southern Chinch Bug (Blissus insularis, BLISIN). Nature of the test: Field trial against Southern chinch bug, nymph counts by vacuum sampling. The note with it: for % Control / % activity: alpha-cypermethrin 95, dinotefuran 600, combination 95 + 380 g ai/ha; for Nymph Counts (average number of Chinch bug nymphs per treatment per sample): 28 days after treatment, alpha-cypermethrin 95, dinotefuran 600, combination 95 + 380 g ai/hectare.
Source text: as §1
Treatments were applied in a field with a natural infestation of Southern Chinch Bugs. The experiment was conducted with four replications, utilizing 3×3 m2 plots. The application was made in 813 liters per hectare spray volume.
The treatments consisted of an untreated check, and formulations containing either alpha-cypermethrin at a use rate of 95 grams ai/hectare, dinotefuran at 600 gram ai/hectare or a combination of alpha-cypermethrin and dinotefuran at 95+380 grams ai/hectare. Direct visual counts were made of larval chinch bugs in all stages of development after being mechanically vacuumed for 20 seconds from the surface of the turf. Chinch Bug abundance was measured using a commercially available lawn vacuum/blower combination machine by covering the vacuum (intake) orifice with mesh cloth and placing the intake on randomly within the turf plot and holding suction for […]. Samples were collected from each plot in an identical manner. After the sample was collected and the vacuum turned off, the captured contents of the mesh cloth were tapped into a 5-gallon plastic bucket for ease of counting of nymphs (at any instar).
The following average numbers of chinch bug nymphs were collected per sample per treatment 28 days after the insecticide applications were made.

For test [3], the system named is Masked chafer (Cyclocephala spp., CYCCSP). The test can be described thus: Turf trial against masked chafer grubs (Kentucky Bluegrass, natural infestation), larvae counts. Conditions: for % Control / % activity: alpha-cypermethrin 95, dinotefuran 600, combination 95 + 380 g ai/ha; for Masked Chafer Grub Counts (average per treatment per sample, per 1 sq. ft.): 62 days after treatment, alpha-cypermethrin 95, dinotefuran 600, combination 95 + 380 g ai/hectare. As for the experimental part: as §1
The trial was conducted with Kentucky Bluegrass as main turf variety, with a natural infestation of masked chafer grubs. Treatments were arranged in a randomized complete block design and replicated four times in plots measuring 24 ft^2.
Treatments were applied in 813 liter/hectare spray volume.
White grub control was determined by larvae counts 62 days after treatment. A sod cutter cut a strip down the center of each replicate and a shovel cut the stirp into a small square in the middle of each plot. The number of larvae in each 1 sq. ft. were counted.

The test system of test [4] is Fall armyworm (Spodoptera frugiperda, LAPHFR). Nature of the test: Golf course trial against fall armyworm, soapy water flush counts. The note with it: for % Control / % activity: alpha-cypermethrin 95, dinotefuran 600, combination 95 + 380 g ai/ha; for Fall Armyworm worm Counts (average per treatment per sample, 1-sq-ft): 28 days after treatment, alpha-cypermethrin 95, dinotefuran 600, combination 95 + 380 g ai/hectare. As for the experimental part: as §1
This trial was conducted at a golf course in an area planted with Hybrid bermudagrass, cv. ‘419’, with natural infestation of fall armyworm. The trial was laid out in 6 replications with each plot measuring 20×25 ft. Applications were made in a spray volume of 203 liters per hectare. The fall armyworms were about second or third instar when found. Fall armyworm density assessment was conducted as soapy water flush. About one gallon of soapy water was poured into an area marked with a 1-sq-ft PVC pipe square. Fall armyworms surfaced within 5 minutes and were counted in each 1-sq-ft area. Fall armyworm densities in a total of three squares (or 3 subsamples) were determined in each plot at each sampling data. Assessments were conducted at 28 days after treatment.

Test [5] has as its system Masked chafer grub, Cyclocephala spp. (CYCCSP). The test can be described thus: Perennial ryegrass plot trial against masked chafer grubs (seeded adults), live grub counts. The note with it: for % Control / % activity: alpha-cypermethrin 95, dinotefuran 600, combination 95 + 380 g ai/ha; for Masked Chafer grub counts (average live grubs per treatment per sample): 4 days after treatment, alpha-cypermethrin 95, dinotefuran 600, combination 95 + 380 g ai/hectare. As for the experimental part: as §1
The study was conducted on perennial ryegrass. Individual plots were 6 ft×6 ft and arranged in a randomized complete block design with 4 replications. Adult Cyclocephala spp. (masked chafer) were collected when active and immediately placed inside covered PVC rings on each plot. Approximately 50 adult masked chafers were added to each plot throughout the active adult stage. The rings were removed 24-36 hours after insecticide application. After the treatment, the plots were irrigated immediately with approximately 0.125″ of water. Treatments were applied in water equivalent to 813 liters/hectare. The number of live grub larvae was assessed 4 days after treatment by removing a two-foot strip of sod cut to a […] each plot (12 ft2 per plot).

Test [6] has as its system Black cut worm (Agrostis ypsilon, AGROYP). The test can be described thus: Field bioassay with caged black cutworm larvae on putting green. Conditions: for % Control / % activity: alpha-cypermethrin 47.5, dinotefuran 600, combination 47.5 + 190 g ai/ha; for Black Cutworm Counts (average surviving larvae per treatment per sample, 10 larvae/plot): 19 days after treatment, alpha-cypermethrin 47.5, dinotefuran 600, combination 47.5 + 190 g ai/hectare. As for the experimental part:
as §1
The study was conducted on a creeping bentgrass/annual bluegrass putting green in a golf course. The study was a field bioassay where insect larvae were placed in cages at different intervals after applying insecticide treatments.
Applications were made to 4-foot by 6-foot plots replicated four times in 813 liter spray volume per hectare. Black cutworm (Agrostis ypsilon) larvae were caged in the turf at after the treatments were applied. Cages consisted of six-inch diameter metal cans. Two cages were inserted into each plot and five second-instar larvae were placed into each cage (total of 10 larvae/plot) before dusk. Window screen and a plastic louver were placed on top of the cages and held down with nails to secure the larvae. Larvae were caged for four days (96 hours) then a disclosing solution of 1 fl. oz. Joy Ultra dish soap in 1 gallon of water was used to flush surviving larvae 19 days after treatment.

Test [7] concerns Japanese beetle grub (Popillia japonica, POPIJA). Nature of the test: Turf plot trial against Japanese beetle grubs, grub counts in soil cores. Conditions: 85 DAT; for % Control / % activity: alpha-cypermethrin 95, dinotefuran 600, combination 95 + 380 g ai/ha; for Japanese Beetle Grub Counts (average per treatment per sample): alpha-cypermethrin 95, dinotefuran 600, combination 95 + 380 g ai/hectare. As to the method: as §1
The trial was conducted in plots consisting of a mix of Poa pratensis (~10%)—Lolium perenne (~60%)—Festuca arundinacea (~10%), and Agrostis stolonifera (<10%). Treatments were arranged in a randomized complete block design and replicated four times. Each replicate consisted of 3 arenas (~150 in^2). Each replicate was contained within a turfgrass plot measuring 9 ft^2. Treatments were applied in 813 liter/hectare spray volume.
To obtain consistent densities of white grub larvae, Japanese beetles (Popillia japonica) were captured in pheromone traps and seeded into the arenas to mate and oviposit.
20 males and 20 females were placed into 8 inch diameter PVC arenas (height=6 inch). The arena was driven 1 inch into the ground and fit with a mesh covering (324 openings/in2) to prevent beetles from escaping. After 3 days, the mesh coverings were removed, beetles removed, and 40 new beetles (20 males and 20 females) were placed into the arenas, followed by a third introduction. Nineteen days after the initial infestation date, the arenas were dismantled, and the turf was maintained as normal. Turf paint was used to mark the edges of turf where the arenas were located and reapplied as necessary.
White grub suppression was assessed 85 DAT by comparing the densities of grubs in treated and untreated plots. Three soil cores (total area=150 in2) were removed from each plot where the arenas were located using a large golf course cup cutter. Core soils were examined visually, by breaking the soil over a tray and looking for grubs (while in the field). The number of white grubs was pooled for the arenas in each replicate. Japanese beetle larvae present at time of evaluation (98.4%) were a mix of 2nd (42%) and 3rd (58%) instars.

Test [8] deals with Sod webworm (Herpetogramma phaeopteralis, PACYPH). The test can be described thus: Field trial against sod webworm, larvae counts. Conditions: for % Control / % activity: alpha-cypermethrin 47.5, dinotefuran 600, combination 47.5 + 190 g ai/ha; for Sod Webworm Counts (average number of larvae per treatment per sample): 7 days after treatment, alpha-cypermethrin 47.5, dinotefuran 600, combination 47.5 + 190 g ai/hectare.
Source text: as §1
Treatments were applied with a natural infestation of sod webworm. The experiment was conducted in four replications, utilizing 3×3 m2 plots. One application was made in 813 liters per hectare spray volume. po The treatments consisted of an untreated check, formulations of either alpha-cypermethrin at a use rate of 47.5 grams ai/hectare, dinotefuran at 600 gram ai/hectare or a combination of alpha-cypermethrin and dinotefuran at 47.5+190 grams ai/hectare.
Direct visual counts were made of sod webworm larvae in each plot 7 days after treatment.

The mark [9] stands for this setting: 28 DAT, calculated from solo rates 95 and 600 g ai/ha.

The values below come from patent US12721343B2, “Methods and uses of a mixture comprising alpha-cypermethrin and dinotefuran for controlling invertebrate pests in t” (BASF AGRO B.V., priority 2020, dated 2026).

As for `CC1(C)C(C=C(Cl)Cl)C1C(=O)OC(C#N)c1cccc(Oc2ccccc2)c1` (racemic) [Alpha-cypermethrin, racemate comprising (R)-α-cyano-3-phenoxybenzyl (1S, 3S)-3-(2,2-dichlorovinyl)-2,2-dimethylcyclopropanecarboxy late; (S)-α-cyano-3-phenoxybenzyl (1R, 3R) (2,2-dichlorovinyl)-2,2-dimethylcyclopropanecarboxylate], in test [1] (5 DAT), the “% Reduction / % activity” value is 94%. Also, the “expected % activity (Colby)” value in test [1] (5 DAT, calculated from solo rates 95 and 600 g ai/ha) is recorded as 98%; in test [2] (setting [9]), 96%; in test [3] (62 DAT, calculated from solo rates 95 and 600 g ai/ha), 97%; in test [4] (setting [9]) it was 58%; in test [5] (4 DAT, calculated from solo rates 95 and 600 g ai/ha), 29%; in test [6] (19 DAT, calculated from solo rates 47.5 and 600 g ai/ha), 83%. For the same compound, the “expected % activity (Colby)” value in test [7] (calculated from solo rates 95 and 600 g ai/ha) was 0%; in test [8] (7 DAT, calculated from solo rates 47.5 and 600 g ai/ha) it was 87%. Also, the “Fall Armyworm damage (%) (average feeding damage)” value in test [1] worked out at 1.25%. Also, the “% Control / % activity” value in test [2] (28 DAT) came out at 81%; in test [3] (62 DAT), 91%; in test [4] (28 DAT), 57%; in test [5] (4 DAT) it was 18%; in test [6] (19 DAT) it was 80%; in test [7] it was 0%. Also, in test [8] (7 DAT), the “% Control / % activity” value is given as 57%. For the same compound, in test [2], the “Nymph Counts (average number of Chinch bug nymphs per treatment per sample)” value amounted to 6.0. The “Masked Chafer Grub Counts (average per treatment per sample, per 1 sq. ft.)” value in test [3] was determined as 0.25. Besides, the “Fall Armyworm worm Counts (average per treatment per sample, 1-sq-ft)” value in test [4] came out at 1.39. Also, the “Masked Chafer grub counts (average live grubs per treatment per sample)” value in test [5] is given as 18.5. Besides, the “Black Cutworm Counts (average surviving larvae per treatment per sample, 10 larvae/plot)” value in test [6] is on record as 1.75. The “Japanese Beetle Grub Counts (average per treatment per sample)” value in test [7] amounted to 2.25. For the same compound, the “Sod Webworm Counts (average number of larvae per treatment per sample)” value in test [8] was found to be 2.5.

On to `CNC(=N[N+](=O)[O-])NCC1CCOC1` (racemic) [Dinotefuran, (RS)-1-methyl-2-nitro-3-(tetrahydro-3-furylmethyl) guanidine], for which the “% Reduction / % activity” value in test [1] (5 DAT) came out at 75%. Further, the “Fall Armyworm damage (%) (average feeding damage)” value in test [1] is reported as 5.00%. Also, the “% Control / % activity” value in test [2] (28 DAT) is 81%; in test [3] (62 DAT) it was 64%; in test [4] (28 DAT) it was 2%; in test [5] (4 DAT) it was 13%; in test [6] (19 DAT) it was 17%; in test [7], 0%. In addition, in test [8] (7 DAT), the “% Control / % activity” value is reported as 60%. Also, the “Nymph Counts (average number of Chinch bug nymphs per treatment per sample)” value in test [2] was found to be 5.8. Moreover, the “Masked Chafer Grub Counts (average per treatment per sample, per 1 sq. ft.)” value in test [3] was 1.00. In test [4], the “Fall Armyworm worm Counts (average per treatment per sample, 1-sq-ft)” value was determined as 3.17. Further, the “Masked Chafer grub counts (average live grubs per treatment per sample)” value in test [5] is recorded as 19.5. In addition, the “Black Cutworm Counts (average surviving larvae per treatment per sample, 10 larvae/plot)” value in test [6] was 7.25. In test [7], the “Japanese Beetle Grub Counts (average per treatment per sample)” value amounted to 2.00. Also, the “Sod Webworm Counts (average number of larvae per treatment per sample)” value in test [8] was determined as 2.3.
